Measured values: US20220195389A1, “METHODS OF IMPROVING THE LONGEVITY OF IMMUNE CELLS” (University of Houston System, priority 2019, published 2022)

System: T cells
Assay: T-cell viability after incubation with compound C
Format: cell-based, human
Conditions: 10 μM dorsomorphin, 6-24 hours
Protocol: T cells were incubated with 10 μM dorsomorphin (Sigma Aldrich) for a period of 6-24 hours. The T cells were subsequently used for either motility assays or functional profiling using TIMING assays.

c1cc(-c2cnn3cc(-c4ccc(OCCN5CCCCC5)cc4)cnc23)ccn1 [CC, dorsomorphin]
impact on T-cell viability: did not have an impact
